The record followed here is PubChem BioAssay (NCI).

Test systems include RPMI-8226 leukemia; 786-0 renal; SR leukemia; TK-10 renal; M14 melanoma; SNB-75 CNS; A549 NSCLC; ACHN renal; PC-3 prostate; A498 renal.
Assay in all cases: NCI anticancer screen, dose series, 48 h

Where “and” joins values, the source holds several entries; their conditions need not be identical. Equal entries are not always repeated.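 Following 48 hours of exposure in 96-well plates, responses at five concentrations were used to interpolate endpoints linearly. Abbreviation: GI50, concentration required for 50% inhibition of growth. Definition used: TGI = concentration required for complete inhibition of growth.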

For the compound `C=C(CN1CCN(c2ccccn2)CC1)c1ccc(C(=O)Nc2ccccc2N)cc1`, the GI50 in the experiment on RPMI-8226 leukemia is 1.6 µM; with 786-0 renal it was 1.2 µM; in the experiment on SR leukemia, 5.33 µM; with TK-10 renal, 1.85 µM; in the experiment with M14 melanoma, 8.48 µM; in the experiment on SNB-75 CNS, 1.48 µM. Besides, the GI50 is 2.4 µM with A549 NSCLC, 1.5 µM with ACHN renal and 3.78 µM in the experiment with PC-3 prostate. The TGI with RPMI-8226 leukemia was greater than 50 µM; in the experiment on 786-0 renal, 8.15 µM; in the experiment on SR leukemia, greater than 50 µM; in the experiment on TK-10 renal it was 8.23 µM; with M14 melanoma, greater than 50 µM; with SNB-75 CNS, 4.68 µM. Moreover, the TGI was 37.3 µM with A549 NSCLC, greater than 50 µM in the experiment on ACHN renal and greater than 50 µM in the experiment with PC-3 prostate.

As to `COc1ccc2c(CN3CCCC[C@H]3O)cc3cc4c(cc3c2c1)OCO4`, the GI50 in the experiment on RPMI-8226 leukemia was 0.298 µM; in the experiment on 786-0 renal it was 0.503 µM; with SR leukemia, 0.195 µM; in the experiment with TK-10 renal, 0.702 µM; with A498 renal, 0.542 µM; with M14 melanoma it was 0.319 µM. For the same compound, the GI50 in the experiment on SNB-75 CNS was 0.5 µM; in the experiment on A549 NSCLC, 0.28 µM; in the experiment with ACHN renal, 0.222 µM; with PC-3 prostate, 0.467 µM. In addition, the TGI in the experiment with RPMI-8226 leukemia was determined as 1.32 µM; in the experiment with 786-0 renal, 6.28 µM; in the experiment on SR leukemia, 0.854 µM; with TK-10 renal, 6.97 µM; with A498 renal, 1.47 µM; in the experiment on M14 melanoma, 1.15 µM. Further, the TGI with SNB-75 CNS came out at 1.86 µM; in the experiment with A549 NSCLC, 2.82 µM; with ACHN renal, 2.36 µM; in the experiment on PC-3 prostate it was 3.53 µM.

As for `COC(=O)N[C@@H](C)CNc1nccc(-c2cn(C(C)C)nc2-c2cc(Cl)cc(NS(C)(=O)=O)c2F)n1`, the GI50 is greater than 70 µM in the experiment with RPMI-8226 leukemia; 14.2 µM with 786-0 renal; 25.6 µM with SR leukemia; greater than 100 µM in the experiment with TK-10 renal; 0.336 µM in the experiment with A498 renal; less than 0.01 µM with M14 melanoma. The GI50 with SNB-75 CNS was 0.51 µM; in the experiment with A549 NSCLC, 48.2 µM; in the experiment on ACHN renal, 1.03 µM; in the experiment on PC-3 prostate it was greater than 100 µM. Moreover, the TGI with RPMI-8226 leukemia is greater than 100 µM; in the experiment on 786-0 renal, greater than 100 µM; in the experiment with SR leukemia it was greater than 84.7 µM; in the experiment with TK-10 renal, greater than 100 µM; in the experiment on A498 renal it was greater than 100 µM; in the experiment on SNB-75 CNS, greater than 100 µM. The TGI in the experiment on A549 NSCLC, in the experiment with ACHN renal and in the experiment on PC-3 prostate was greater than 100 µM each time.

For the compound `COc1ccc(C2=NNC(c3sc(Cl)nc3Cl)C2)cc1` (stereo not drawn), the GI50 in the experiment with RPMI-8226 leukemia was 3.86 µM; with 786-0 renal, 4.06 µM; with SR leukemia, 2.54 µM; with A498 renal it was 33.1 µM; in the experiment on M14 melanoma, 3.47 µM; in the experiment on SNB-75 CNS it was 36.6 µM. The GI50 was 29.8 µM in the experiment on A549 NSCLC, 4.58 µM in the experiment with ACHN renal and 6.11 µM in the experiment with PC-3 prostate. The TGI is 19.2 µM with RPMI-8226 leukemia; greater than 100 µM with 786-0 renal; 19.7 µM with SR leukemia; greater than 100 µM with A498 renal; 16.8 µM in the experiment with M14 melanoma; greater than 100 µM in the experiment on SNB-75 CNS. Further, the TGI in the experiment with A549 NSCLC was greater than 100 µM; with ACHN renal it was 20.6 µM; in the experiment on PC-3 prostate, 29.5 µM.

With `CN1C2C=CC(=O)C1C(C#N)C2` (stereo not drawn), the GI50 with 786-0 renal is 16.3 µM and 51.7 µM; in the experiment on SR leukemia, 22.7 µM and 61.6 µM; in the experiment with M14 melanoma it was 29.5 µM and 69.1 µM. Besides, the TGI with 786-0 renal was 35.5 µM and > 100 µM; in the experiment with SR leukemia it was 81 µM and > 100 µM; with TK-10 renal, greater than 100 µM; in the experiment with A498 renal, greater than 100 µM; with M14 melanoma it was 89.7 µM and > 100 µM; in the experiment with A549 NSCLC, greater than 100 µM. Moreover, the TGI with ACHN renal and with PC-3 prostate was greater than 100 µM throughout.

With `COc1ccc(C(=O)c2ccccc2)c(O)c1`, the GI50 in the experiment on RPMI-8226 leukemia is 82.2 µM; in the experiment with 786-0 renal, greater than 100 µM; in the experiment on SR leukemia, 45.7 µM; in the experiment on TK-10 renal, greater than 100 µM; with A498 renal, 16 µM; in the experiment with M14 melanoma, 81.7 µM. The GI50 was 20.4 µM in the experiment on SNB-75 CNS, greater than 100 µM in the experiment on A549 NSCLC, greater than 100 µM in the experiment with ACHN renal and greater than 100 µM with PC-3 prostate. In addition, the TGI in the experiment on RPMI-8226 leukemia, in the experiment on 786-0 renal, in the experiment on SR leukemia, in the experiment with TK-10 renal, with A498 renal and with M14 melanoma was greater than 100 µM in each case. Further, the TGI with SNB-75 CNS, in the experiment on A549 NSCLC, in the experiment with ACHN renal and in the experiment with PC-3 prostate was greater than 100 µM in each case.

Consider `COc1ccc2c(c1)[n+](=O)c(/C=C/C(=O)c1cc(OC)c(OC)c(OC)c1)c(C)n2[O-]`, for which the GI50 in the experiment on RPMI-8226 leukemia is 3.05 µM; in the experiment on 786-0 renal, 13.7 µM; with SR leukemia it was 0.644 µM; in the experiment on TK-10 renal it was 8.74 µM; in the experiment with A498 renal, 20.5 µM; in the experiment on M14 melanoma, 3.55 µM. Moreover, the GI50 was 11.9 µM in the experiment with SNB-75 CNS, 21.5 µM with A549 NSCLC, 5.66 µM with ACHN renal and 15.7 µM in the experiment on PC-3 prostate. Besides, the TGI with RPMI-8226 leukemia was 15.6 µM; with 786-0 renal, 50.3 µM; in the experiment with SR leukemia it was 2.41 µM; with TK-10 renal, greater than 100 µM; with A498 renal it was 54.2 µM; in the experiment with M14 melanoma, 23.5 µM. Moreover, the TGI is 43.1 µM in the experiment with SNB-75 CNS, greater than 100 µM in the experiment on A549 NSCLC, 23.6 µM in the experiment on ACHN renal and greater than 100 µM in the experiment with PC-3 prostate.

For `CCCC(=O)Nc1cc(/C=C/C(=O)N2C[C@@H]3C[C@]34C2=CC(=O)c2[nH]cc(C)c24)n(C)c1`, the GI50 with RPMI-8226 leukemia is 0.193 µM; with 786-0 renal it was 0.021 µM; with M14 melanoma, 0.0672 µM; with SNB-75 CNS, 0.061 µM; with PC-3 prostate, 0.125 µM. Also, the TGI in the experiment with RPMI-8226 leukemia was 3.72 µM and 0.757 µM; in the experiment on SR leukemia, 0.0709 µM; in the experiment with A498 renal, 0.689 µM and 0.478 µM; with M14 melanoma it was 1.55 µM and 0.22 µM; in the experiment with SNB-75 CNS, 1.21 µM and 0.248 µM; in the experiment on ACHN renal, 0.796 µM. The TGI in the experiment on PC-3 prostate was 5.7 µM and 0.625 µM.
